Source: ChEMBL document CHEMBL4507276 (2021)

Key:
Details in all cases: Compound concentration 1000.0 nM
[1] = target: Hormonally up-regulated neu tumor-associated kinase (Homo sapiens) (UniProt P57058)
[2] = system: eIF-2-alpha kinase GCN2 (Homo sapiens), Q9P2K8 [S808G]
[3] = target: Non-receptor tyrosine-protein kinase TYK2 (Homo sapiens) (UniProt P29597)
[4] = target: T1, Mitogen-activated protein kinase kinase kinase 3 (Homo sapiens) (UniProt Q99759)
T1 sequence (whole entry): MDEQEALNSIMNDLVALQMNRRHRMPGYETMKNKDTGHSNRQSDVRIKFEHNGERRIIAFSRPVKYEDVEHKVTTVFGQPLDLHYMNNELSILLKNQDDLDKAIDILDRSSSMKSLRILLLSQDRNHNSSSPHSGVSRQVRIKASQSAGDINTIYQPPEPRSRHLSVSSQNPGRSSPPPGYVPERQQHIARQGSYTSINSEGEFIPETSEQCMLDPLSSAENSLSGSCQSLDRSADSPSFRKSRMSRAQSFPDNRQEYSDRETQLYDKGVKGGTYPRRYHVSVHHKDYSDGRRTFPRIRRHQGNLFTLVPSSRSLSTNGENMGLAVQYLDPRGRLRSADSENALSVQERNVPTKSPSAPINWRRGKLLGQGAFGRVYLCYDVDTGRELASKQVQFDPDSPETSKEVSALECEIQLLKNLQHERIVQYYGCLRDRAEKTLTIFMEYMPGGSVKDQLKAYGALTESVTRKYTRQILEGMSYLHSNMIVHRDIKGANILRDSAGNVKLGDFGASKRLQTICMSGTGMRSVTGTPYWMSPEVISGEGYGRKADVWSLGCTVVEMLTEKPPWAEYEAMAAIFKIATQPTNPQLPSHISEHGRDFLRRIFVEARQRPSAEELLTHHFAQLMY

[5] = target: TRAF2 and NCK-interacting protein kinase (Homo sapiens) (UniProt Q9UKE5)
[6] = target: Ribosomal protein S6 kinase alpha-1 (Homo sapiens) (UniProt Q15418)
[7] = target: RAC-gamma serine/threonine-protein kinase (Homo sapiens) (UniProt Q9Y243)
[8] = target: Serine/threonine-protein kinase PAK 3 (Homo sapiens) (UniProt O75914)
[9] = target: Vascular endothelial growth factor receptor 2 (Homo sapiens) (UniProt P35968)
[10] = target: Rho-associated protein kinase 2 (Homo sapiens) (UniProt O75116)
Chain of Rho-associated protein kinase 2 (Homo sapiens) (O75116 whole entry, looked up): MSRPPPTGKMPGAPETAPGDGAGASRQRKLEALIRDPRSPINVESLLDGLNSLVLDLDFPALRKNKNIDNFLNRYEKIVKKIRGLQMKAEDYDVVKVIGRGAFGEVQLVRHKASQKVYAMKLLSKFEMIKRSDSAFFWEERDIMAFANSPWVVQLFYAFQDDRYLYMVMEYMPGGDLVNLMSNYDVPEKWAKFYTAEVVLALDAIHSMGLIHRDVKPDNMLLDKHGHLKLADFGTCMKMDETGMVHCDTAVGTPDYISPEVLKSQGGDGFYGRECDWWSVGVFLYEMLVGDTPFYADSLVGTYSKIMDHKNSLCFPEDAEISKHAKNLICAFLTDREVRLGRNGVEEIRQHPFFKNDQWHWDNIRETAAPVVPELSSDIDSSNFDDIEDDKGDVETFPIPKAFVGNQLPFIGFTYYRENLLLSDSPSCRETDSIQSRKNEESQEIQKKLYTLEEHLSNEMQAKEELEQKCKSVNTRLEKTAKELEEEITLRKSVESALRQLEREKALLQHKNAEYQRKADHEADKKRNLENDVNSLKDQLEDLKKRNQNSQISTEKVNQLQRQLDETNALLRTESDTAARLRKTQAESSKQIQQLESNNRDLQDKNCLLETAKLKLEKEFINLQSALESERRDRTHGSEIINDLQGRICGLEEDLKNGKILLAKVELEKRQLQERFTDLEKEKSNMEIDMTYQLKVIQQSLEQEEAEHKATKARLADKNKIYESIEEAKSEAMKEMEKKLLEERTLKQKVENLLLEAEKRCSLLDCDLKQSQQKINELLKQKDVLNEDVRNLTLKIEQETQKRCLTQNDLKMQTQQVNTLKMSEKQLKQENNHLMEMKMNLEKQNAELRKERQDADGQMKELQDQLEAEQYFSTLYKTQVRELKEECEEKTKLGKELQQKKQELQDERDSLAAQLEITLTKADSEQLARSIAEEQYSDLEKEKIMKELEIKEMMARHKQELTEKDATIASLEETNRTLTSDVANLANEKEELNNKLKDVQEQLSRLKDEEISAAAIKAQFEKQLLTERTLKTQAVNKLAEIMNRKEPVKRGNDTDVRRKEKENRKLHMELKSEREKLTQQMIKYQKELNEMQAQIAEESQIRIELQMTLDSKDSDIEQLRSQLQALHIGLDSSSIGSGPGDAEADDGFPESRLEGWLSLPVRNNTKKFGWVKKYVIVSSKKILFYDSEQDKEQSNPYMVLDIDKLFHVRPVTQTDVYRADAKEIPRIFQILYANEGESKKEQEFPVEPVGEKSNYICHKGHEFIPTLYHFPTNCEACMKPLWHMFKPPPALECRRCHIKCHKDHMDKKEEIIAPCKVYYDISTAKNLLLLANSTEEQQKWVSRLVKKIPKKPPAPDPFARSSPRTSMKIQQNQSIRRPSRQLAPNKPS

[11] = target: Serine/threonine-protein kinase Nek4 (Homo sapiens) (UniProt P51957)
[12] = target: T2, Serine/threonine-protein kinase Nek2 (Homo sapiens) (UniProt P51955)
T2 sequence (whole entry): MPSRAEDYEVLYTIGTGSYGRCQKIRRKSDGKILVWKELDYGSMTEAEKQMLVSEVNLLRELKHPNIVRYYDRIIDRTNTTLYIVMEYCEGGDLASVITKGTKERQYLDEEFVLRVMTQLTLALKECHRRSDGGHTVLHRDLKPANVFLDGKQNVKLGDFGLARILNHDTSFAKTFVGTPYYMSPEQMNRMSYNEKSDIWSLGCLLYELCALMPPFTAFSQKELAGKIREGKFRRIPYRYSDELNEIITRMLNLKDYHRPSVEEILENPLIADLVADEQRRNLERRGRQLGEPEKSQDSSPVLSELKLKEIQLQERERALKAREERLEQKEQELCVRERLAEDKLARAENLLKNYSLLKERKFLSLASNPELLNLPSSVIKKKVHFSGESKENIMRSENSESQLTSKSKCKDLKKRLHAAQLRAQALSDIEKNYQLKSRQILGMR

[13] = target: T3, Testis-specific serine/threonine-protein kinase 3 (Homo sapiens) (UniProt Q96PN8)
T3 sequence (whole entry): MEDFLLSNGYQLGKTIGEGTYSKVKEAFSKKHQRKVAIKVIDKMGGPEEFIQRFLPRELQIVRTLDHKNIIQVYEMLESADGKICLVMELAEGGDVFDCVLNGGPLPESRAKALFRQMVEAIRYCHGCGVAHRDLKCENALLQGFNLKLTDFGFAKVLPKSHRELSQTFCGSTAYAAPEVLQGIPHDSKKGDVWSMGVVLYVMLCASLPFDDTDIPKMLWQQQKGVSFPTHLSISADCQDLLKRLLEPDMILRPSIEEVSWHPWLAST

[14] = target: Cyclin-dependent kinase 9 (Homo sapiens) (UniProt P50750)
Chain of Cyclin-dependent kinase 9 (Homo sapiens) (P50750 whole entry): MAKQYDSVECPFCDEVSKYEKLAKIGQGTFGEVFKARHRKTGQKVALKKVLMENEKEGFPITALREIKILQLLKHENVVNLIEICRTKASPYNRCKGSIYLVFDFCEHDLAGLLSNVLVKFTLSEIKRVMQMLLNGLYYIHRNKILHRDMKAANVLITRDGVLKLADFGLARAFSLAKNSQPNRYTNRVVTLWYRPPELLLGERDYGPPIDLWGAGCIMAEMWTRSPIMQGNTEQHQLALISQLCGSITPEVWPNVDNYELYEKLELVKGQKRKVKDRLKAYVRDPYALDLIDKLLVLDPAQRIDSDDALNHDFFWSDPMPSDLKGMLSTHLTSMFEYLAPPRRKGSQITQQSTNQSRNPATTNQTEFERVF

[15] = target: Serine/threonine-protein kinase ICK (Homo sapiens) (UniProt Q9UPZ9)
[16] = target: Dual specificity mitogen-activated protein kinase kinase 5 (Homo sapiens) (UniProt Q13163)
Chain of Dual specificity mitogen-activated protein kinase kinase 5 (Homo sapiens) (Q13163 whole entry): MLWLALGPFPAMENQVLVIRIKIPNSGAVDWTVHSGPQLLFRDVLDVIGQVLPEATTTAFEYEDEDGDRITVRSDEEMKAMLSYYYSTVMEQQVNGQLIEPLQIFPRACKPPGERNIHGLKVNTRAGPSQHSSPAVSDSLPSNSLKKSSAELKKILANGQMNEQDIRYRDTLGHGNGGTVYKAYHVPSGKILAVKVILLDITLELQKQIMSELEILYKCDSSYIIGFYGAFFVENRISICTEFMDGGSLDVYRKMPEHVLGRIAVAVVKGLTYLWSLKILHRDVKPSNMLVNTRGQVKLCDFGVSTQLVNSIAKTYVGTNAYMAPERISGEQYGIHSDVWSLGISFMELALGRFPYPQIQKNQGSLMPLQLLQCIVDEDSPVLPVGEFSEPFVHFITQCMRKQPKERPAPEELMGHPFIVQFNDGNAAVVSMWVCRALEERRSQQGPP

[17] = system: Tyrosine-protein kinase ABL1 (Homo sapiens), P00519 [F317L]
[18] = target: Macrophage colony-stimulating factor 1 receptor (Homo sapiens) (UniProt P07333)
[19] = target: Mitogen-activated protein kinase 8 (Homo sapiens) (UniProt P45983)
Chain of Mitogen-activated protein kinase 8 (Homo sapiens) (P45983 whole entry): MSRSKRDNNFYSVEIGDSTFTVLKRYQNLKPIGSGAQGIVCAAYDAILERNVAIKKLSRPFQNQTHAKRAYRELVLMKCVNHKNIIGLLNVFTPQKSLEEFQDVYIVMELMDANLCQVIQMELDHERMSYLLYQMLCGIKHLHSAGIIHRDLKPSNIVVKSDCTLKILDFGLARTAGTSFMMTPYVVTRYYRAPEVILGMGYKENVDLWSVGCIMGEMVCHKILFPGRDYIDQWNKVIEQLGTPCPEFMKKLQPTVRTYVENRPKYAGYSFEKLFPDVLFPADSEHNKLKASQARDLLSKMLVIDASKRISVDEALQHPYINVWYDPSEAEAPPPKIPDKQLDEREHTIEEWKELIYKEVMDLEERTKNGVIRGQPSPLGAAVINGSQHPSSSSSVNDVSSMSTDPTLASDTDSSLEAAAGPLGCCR

Measured: residual activity

Chain of Hormonally up-regulated neu tumor-associated kinase (Homo sapiens) (P57058 whole entry): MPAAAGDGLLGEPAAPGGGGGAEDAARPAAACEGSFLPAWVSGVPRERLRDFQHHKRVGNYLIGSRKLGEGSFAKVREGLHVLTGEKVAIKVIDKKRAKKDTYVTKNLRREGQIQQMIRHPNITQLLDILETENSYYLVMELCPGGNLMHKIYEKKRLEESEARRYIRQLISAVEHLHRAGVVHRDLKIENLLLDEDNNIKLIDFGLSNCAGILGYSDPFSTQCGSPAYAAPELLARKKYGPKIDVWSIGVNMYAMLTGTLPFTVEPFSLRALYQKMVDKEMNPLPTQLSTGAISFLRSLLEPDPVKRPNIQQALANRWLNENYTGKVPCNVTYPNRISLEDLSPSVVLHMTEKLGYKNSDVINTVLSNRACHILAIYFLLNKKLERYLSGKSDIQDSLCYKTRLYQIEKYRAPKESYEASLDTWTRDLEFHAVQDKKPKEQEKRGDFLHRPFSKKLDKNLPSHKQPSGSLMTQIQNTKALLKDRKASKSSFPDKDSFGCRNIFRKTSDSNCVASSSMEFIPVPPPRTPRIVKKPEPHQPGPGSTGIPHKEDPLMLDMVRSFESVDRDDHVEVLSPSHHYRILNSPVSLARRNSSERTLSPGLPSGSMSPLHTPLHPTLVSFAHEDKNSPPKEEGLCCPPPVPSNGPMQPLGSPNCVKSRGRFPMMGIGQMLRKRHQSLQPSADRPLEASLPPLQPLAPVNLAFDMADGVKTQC
Chain of eIF-2-alpha kinase GCN2 (Homo sapiens), Q9P2K8 [S808G] (Q9P2K8 whole entry S808G): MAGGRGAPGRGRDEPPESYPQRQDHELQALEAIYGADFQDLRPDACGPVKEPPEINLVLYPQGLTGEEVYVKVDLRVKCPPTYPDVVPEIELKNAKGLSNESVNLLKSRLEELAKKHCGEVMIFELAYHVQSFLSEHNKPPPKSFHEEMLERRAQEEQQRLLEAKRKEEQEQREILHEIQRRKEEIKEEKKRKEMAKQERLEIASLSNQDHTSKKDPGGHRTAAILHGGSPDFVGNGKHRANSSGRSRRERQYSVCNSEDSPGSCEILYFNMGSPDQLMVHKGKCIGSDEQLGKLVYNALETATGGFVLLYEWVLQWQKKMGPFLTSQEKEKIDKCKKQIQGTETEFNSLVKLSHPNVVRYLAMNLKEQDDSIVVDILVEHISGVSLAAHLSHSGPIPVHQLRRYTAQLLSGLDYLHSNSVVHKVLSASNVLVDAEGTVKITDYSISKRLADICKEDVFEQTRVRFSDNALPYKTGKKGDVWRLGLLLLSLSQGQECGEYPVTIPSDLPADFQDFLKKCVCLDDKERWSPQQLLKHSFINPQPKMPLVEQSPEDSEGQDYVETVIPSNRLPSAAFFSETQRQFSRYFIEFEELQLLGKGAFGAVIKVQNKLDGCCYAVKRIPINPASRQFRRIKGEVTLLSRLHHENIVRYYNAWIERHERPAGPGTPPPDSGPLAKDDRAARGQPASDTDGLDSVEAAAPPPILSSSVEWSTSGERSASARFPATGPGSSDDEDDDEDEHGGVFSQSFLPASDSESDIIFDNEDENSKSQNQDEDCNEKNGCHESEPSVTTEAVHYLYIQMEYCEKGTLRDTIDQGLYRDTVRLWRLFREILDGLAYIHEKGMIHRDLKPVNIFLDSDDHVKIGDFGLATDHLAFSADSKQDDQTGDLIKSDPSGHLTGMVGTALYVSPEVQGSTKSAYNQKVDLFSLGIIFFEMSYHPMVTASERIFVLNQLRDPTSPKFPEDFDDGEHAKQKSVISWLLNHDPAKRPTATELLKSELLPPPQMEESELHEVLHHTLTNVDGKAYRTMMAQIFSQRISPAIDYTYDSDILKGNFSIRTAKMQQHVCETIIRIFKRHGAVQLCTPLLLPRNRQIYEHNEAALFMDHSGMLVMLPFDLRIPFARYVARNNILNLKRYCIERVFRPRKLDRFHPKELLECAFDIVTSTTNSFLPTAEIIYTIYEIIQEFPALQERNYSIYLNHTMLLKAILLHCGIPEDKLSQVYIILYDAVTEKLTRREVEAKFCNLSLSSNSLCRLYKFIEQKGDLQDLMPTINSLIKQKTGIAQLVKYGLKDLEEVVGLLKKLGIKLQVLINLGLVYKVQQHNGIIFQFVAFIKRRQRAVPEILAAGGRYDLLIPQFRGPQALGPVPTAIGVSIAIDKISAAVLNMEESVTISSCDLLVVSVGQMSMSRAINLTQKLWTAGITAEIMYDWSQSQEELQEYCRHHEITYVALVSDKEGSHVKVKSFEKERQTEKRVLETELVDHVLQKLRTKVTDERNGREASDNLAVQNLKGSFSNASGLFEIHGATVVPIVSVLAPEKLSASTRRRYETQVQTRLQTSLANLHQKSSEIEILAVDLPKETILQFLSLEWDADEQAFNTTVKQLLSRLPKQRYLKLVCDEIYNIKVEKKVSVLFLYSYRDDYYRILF

CN(C)C(=O)Cn1cc(-c2nc(C3(c4ccc(-c5cnc(N)nc5)cc4)CC3)no2)cn1 [BI 0153]
inactive: [1] 96% | [2] 83% | [3] 100% | [4] 81% | [5] 100% | [6] 99% | [7] 87% | [8] 82% | [9] 70% | [10] 89% | [11] 95% | [12] 100% | [13] 97% | [14] 100% | [15] 76% | [16] 72% | [17] 55% | [18] 84% | [19] 78%

CN(C)C(=O)Cn1cc(-c2nc([C@@](C)(c3ccc(-c4cnc(N)nc4)cc3)C3CC3)no2)cn1 [BI 665915]
inactive: [1] 100% | [2] 100% | [3] 75% | [4] 86% | [5] 100% | [6] 93% | [7] 100% | [8] 87% | [9] 87% | [10] 100% | [11] 88% | [12] 97% | [13] 68% | [14] 96% | [15] 100% | [16] 62% | [17] 66% | [18] 96% | [19] 51%
